{
  "source": "patent US20230416675A1",
  "about": "“EFFICIENT AND RAPID SPECIFICATION OF SPINAL NEURONAL SUBTYPES FROM HUMAN PLURIPOTENT STEM CELLS” (INSERM (INSTITUT NATIONAL DE LA SANTE ET DE LA RECHERCHE …, priority 2020, published 2023)",
  "assay_type_in_all_cases": "cell-based, human",
  "key": {"induced PSC (iPSC) line": {"tested_on": "induced PSC (iPSC) line", "assay": "Induction of CDX2-expressing axial progenitors in an induced PSC line", "conditions": "CHIR increased from 3 to 4 μM", "description": "Human PSC embryoid body-based differentiation was performed as previously described (Maury et al., 2015). hPSC were dissociated with cold Accutase (Life Technologies) for 3 to 5 min at 37° C. and resuspended in differentiation medium N2B27 (Advanced DMEM F12, Neurobasal vol:vol (Life Technologies)), supplemented with N2 (Life Technologies), B27 without Vitamin A (Life technologies), penicillin/streptomycin 1%, β-Mercaptoéthanol 0.1% (Life Technologies), with Y-27632 (10 μM, Stemgent or Stem Cell Technologies), CHIR-99021 (3 μM or 4 μM Selleckchem) SB431542 (20 μM, Selleckchem) and LDN 193189 (0.1 μM, Selleckchem). 2×10^5 cells ml^-1 were seeded in ultra-low attachment 6 well plates (Corning) to form embryoid bodies (EBs). All conditions of differentiation received the same medium at day 2 and at day 3 but SB431542 was removed at day 3. Then, the differentiation proceeded according to the […] presented above the figures. SAG (Smoothened Agonist, Merck millipore), FGF2 (Recombinant Human FGF basic, Peprotech), RA (Sigma-Aldrich), GDF11 (Recombinant Human/Murine/Rat GDF11, Peprotech), PD0325901 (Selleckchem), PD173074, SCH772984 (Selleckchem), DAPT (Stemgent) were added at indicated time points. For concentrations see Table S2. Media were changed every other day unless specified. […]"}, "[1]": {"tested_on": "HOX genes in hPSC-derived axial progenitors", "assay": "Real time PCR analysis of HOX mRNAs in progenitors", "conditions": "for temporal increase of HOXC6, C8 and C9 mRNAs in progenitors: inhibitor at D3, progenitors at D4 and D5", "description": "(§1) Human PSC embryoid body-based differentiation was performed as previously described (Maury et al., 2015). hPSC were dissociated with cold Accutase (Life Technologies) for 3 to 5 min at 37° C. and resuspended in differentiation medium N2B27 (Advanced DMEM F12, Neurobasal vol:vol (Life Technologies)), supplemented with N2 (Life Technologies), B27 without Vitamin A (Life technologies), penicillin/streptomycin 1%, β-Mercaptoéthanol 0.1% (Life Technologies), with Y-27632 (10 μM, Stemgent or Stem Cell Technologies), CHIR-99021 (3 μM or 4 μM Selleckchem) SB431542 (20 μM, Selleckchem) and LDN 193189 (0.1 μM, Selleckchem). 2×10^5 cells ml^−1 were seeded in ultra-low attachment 6 well plates (Corning) to form embryoid bodies (EBs). All conditions of differentiation received the same medium at day 2 and at day 3 but SB431542 was removed at day 3. Then, the differentiation proceeded according to the schemas presented above the figures. SAG (Smoothened Agonist, Merck millipore), FGF2 (Recombinant Human FGF basic, Peprotech), RA (Sigma-Aldrich), GDF11 (Recombinant Human/Murine/Rat GDF11, Peprotech), PD0325901 (Selleckchem), PD173074, SCH772984 (Selleckchem), DAPT (Stemgent) were added at indicated time points. For concentrations see Table S2. Media were changed every other day unless specified.\nTotal RNA were extracted (RNAeasy Plus Mini Kit, Qiagen) and cDNA synthesized using SuperScript III (Invitrogen). Quantitative real-time PCR was performed using a 7900HT fast real time PCR system (Applied Biosystems) with Sybr Green PCR Master Mix (Applied Biosystems). Alternatively performed using QuantStudio 5 Real-Time PCR System (Thermofisher Scientific) and a mix with qPCR Brilliant II SYBR MM with low ROX (Agilent). Primers are listed in Supplementary Table 3. All expression data were normalized to Cyclophilin A mRNA. All analyses were performed with three technical replicates per plate. Relative expression levels were determined by calculating 2-ΔΔCt."}, "[2]": {"tested_on": "hPSC-derived axial progenitors", "assay": "Motor neuron (MN) subtype specification: immunostaining of embryoid bodies on day 14 of differentiation, proportion of MNs (ISL1+ cells) expressing HOX/FOXP1/SCIP markers", "conditions": "for MN identities induced: extrinsic cue added on D3 with RA/SAG, all concentrations and durations; for rostro-caudal identity of MNs generated: inhibitor added at D3 up to D7, RA/SAG at D7; for efficiency of MN generation: inhibitor from D3 to D7, RA/SAG at D7", "description": "as §1\nEBs were collected, rinsed with PBS then fixed with 4% PFA for 5 min at 4° C. and rinsed with PBS 3 times for 5 min. EBs were cryoprotected with 30% sucrose and embedded in OCT (Leica) prior sectioning with a cryostat. Alternatively, day 2, 3 and 4 progenitors were plated on Matrigel (Corning, diluted according to manufacturer recommendation) coated coverslips and let to adhere between for 30 min prior fixation with 4% PFA for 5 min at 4° C.\nAll immunostainings were performed as follow: cells or sections were incubated with a saturation solution (PBS/FBS 10%/0.2% Triton) for 10 minutes. Primary antibodies (Table S3) were diluted in staining solution (PBS/2% FBS/0.2% Triton) and incubated overnight at 4° C. in a humidified chamber. Following 4 PBS washes (10 min each), secondary antibodies (Alexa488, Alexa568 and Alexa647, Life Technologies, 1:1,000) were added for 1 h at RT. After 3 PBS washes, DAPI was added on the cells (Invitrogen, 1:3,000) for 5 min. Cells or slices were then mounted in Fluoromount (Sigma Aldrich or Cliniscience).\nSamples were visualized and imaged using either a ZEISS LSM 880 Confocal Laser Scanning Microscope (Carl Zeiss Microscopy) controlled by Zen black software (Zeiss), a confocal microscope TCS SP5 II (Leica) or a DM6000 microscope (Leica) equipped with CoolSNAP EZ CDD camera, controlled by MetaMorph software (MetaMorph Inc). Alternatively, images were acquired using the automated microscope Cell Discoverer 7 (Zeiss), equipped with an Axiocam 506 m camera, with Zen black software (Zeiss).\nAll statistics were computed using Graphpad Prism software. One-way analysis of variance (ANOVA) with a Kruskall-Wallis post hoc analysis were performed following normality tests provided by Prism. In all figures, n are independent differentiations started from independent newly thawed hPSCs vials. For each condition at least 4 independent EBs were imaged in which all the cells were quantified by automated image analysis. The images were exported and saved as TIFF with Fiji if needed (Schindelin et al., 2012). Quantitative analyses on images were performed using the CellProfiler software (Carpenter et al., 2006) (Broad Institute open source at www.cellprofiler.org). DAPI stained nucleus were segmented into primary objects using CellProfiler segmentation pipeline and the nuclear mask was used to define objects on the target channels. The threshold to define positive nuclei for a given target was obtained using EBs' section negative for the target of interest. All images across conditions were then automatically analyzed in batch ensuring unbiased analysis. […]"}, "[3]": {"conditions": "FGF2 15 ng/ml D3 to D9 together with RA/SAG"}, "[4]": {"conditions": "FGF2 60 ng/ml D3 to D9 together with RA/SAG"}, "[5]": {"conditions": "FGF2 120 ng/ml for 24 h from D3, with RA/SAG"}, "[6]": {"conditions": "FGF2 120 ng/ml for 48 h from D3, with RA/SAG"}, "[7]": {"conditions": "GDF11 25 ng/ml for 24 h with RA on D3 progenitors"}},
  "note": "Entries after “also recorded” stand apart in the source; their conditions may differ.",
  "data": [
    {"molecule": "Cc1cnc(-c2cnc(NCCNc3ccc(C#N)cn3)nc2-c2ccc(Cl)cc2Cl)[nH]1", "note": "[CHIR, 6-[[2-[[4-(2,4-dichlorophenyl)-5-(5-methyl-1H-imidazol-2-yl)-2 pyrimidinyl]amino]ethyl]amino]-3-pyridinecarbonitrile]", "values": [
      {"measurement": "homogenous population of progenitors expressing CDX2 on D3", "setting": "induced PSC (iPSC) line", "result": "necessary to generate a homogenous population of progenitors expressing CDX2 on D3"}
    ]},
    {"molecule": "FGF2: Recombinant Human FGF basic, Peprotech, accession P09038; FGFR agonist", "values": [
      {"measurement": "HOX gene expression compared to RA/SAG controls", "setting": "[1]; 24 h and 48 h post FGF2 treatment", "result": "precocious increase in HOXC8, HOXC9, HOXD9 and HOXC10 expression"},
      {"measurement": "Caudal brachial HOXC8 MNs", "setting": "[2]; [3]", "result": 68.2, "unit": "%"},
      {"measurement": "HOXC8 MNs, fold increase", "setting": "[2]; [3]", "result": 8.6, "unit": "fold"},
      {"measurement": "HOXC9+/HOXC6- thoracic MNs", "setting": "[2]; [4]", "result": 58.9, "unit": "%"},
      {"measurement": "HOXC9+/HOXC6- thoracic MNs, fold increase", "setting": "[2]; [4]", "result": 82.5, "unit": "fold"},
      {"measurement": "HOXC6 MNs", "setting": "[2]; FGF2 120 ng/ml D3 to D9 together with RA/SAG", "result": "reduced slightly more HOXC6 MNs"},
      {"measurement": "FOXP1^high/SCIP MNs", "setting": "[2]; [5]", "result": 47.9, "unit": "%"},
      {"measurement": "HOXC6 MNs", "setting": "[2]; [5]", "result": 49.7, "unit": "%"},
      {"measurement": "HOXC8 MNs", "setting": "[2]; [5]", "result": 79.4, "unit": "%"},
      {"measurement": "HOXC9 MNs", "setting": "[2]; [5]", "result": 14.7, "unit": "%"},
      {"measurement": "FOXP1^high/SCIP MNs", "setting": "[2]; [6]", "result": 13.2, "unit": "%"},
      {"measurement": "HOXC6 MNs", "setting": "[2]; [6]", "result": 7.5, "unit": "%"},
      {"measurement": "HOXC9 MNs", "setting": "[2]; [6]", "result": 76.4, "unit": "%"},
      {"measurement": "MN identities induced", "setting": "[2]", "result": "induce more caudal MN subtypes; also recorded: more caudal MN identities were induced without the need of delaying RA addition"}
    ]},
    {"molecule": "CCN(CC)CCCCNc1ncc2cc(-c3cc(OC)cc(OC)c3)c(NC(=O)NC(C)(C)C)nc2n1", "note": "[PD173074, reference compound]", "values": [
      {"measurement": "temporal increase of HOXC6, C8 and C9 mRNAs in progenitors", "setting": "[1]", "result": "prevent the temporal increase in caudal HOX expression"},
      {"measurement": "rostro-caudal identity of MNs generated", "setting": "[2]", "result": "prevent the specification of HOXC8 and HOXC9 MNs; also recorded: anterior brachial identity (HOXC6)"},
      {"measurement": "number of EBs collected", "setting": "[2]; inhibitor from D3 to D7", "result": "reduced number of EBs"},
      {"measurement": "efficiency of MN generation", "setting": "[2]", "result": "not impacted"}
    ]},
    {"molecule": "O=C(NOC[C@H](O)CO)c1ccc(F)c(F)c1Nc1ccc(I)cc1F", "note": "[PD0325901, reference compound]", "values": [
      {"measurement": "temporal increase of HOXC6, C8 and C9 mRNAs in progenitors", "setting": "[1]", "result": "blocked this increase at D4 or D5"},
      {"measurement": "temporal increase of HOXC6, C8 and C9 mRNAs in progenitors", "setting": "[1]; listed as PD032590", "result": "prevent the temporal increase in caudal HOX expression"},
      {"measurement": "rostro-caudal identity of MNs generated", "setting": "[2]", "result": "anterior brachial identity (HOXC6)"},
      {"measurement": "rostro-caudal identity of MNs generated", "setting": "[2]; listed as PD032590", "result": "prevent the specification of HOXC8 and HOXC9 MNs"},
      {"measurement": "efficiency of MN generation", "setting": "[2]", "result": "not impacted"}
    ]},
    {"molecule": "GDF11: Recombinant Human/Murine/Rat GDF11, Peprotech; member of the TGFβ family (protein, UniProt O95390 299-407, looked up) Growth/differentiation factor …: NLGLDCDEHSSESRCCRYPLTVDFEAFGWDWIIAPKRYKANYCSGQCEYMFMQKYPHTHLVQQANPRGSAGPCCTPTKMSPINMLYFNDKQQIIYGKIPGMVVDRCGCS", "values": [
      {"measurement": "caudal thoracic or lumbar identities", "setting": "[2]; GDF11 25 ng/ml for 24 h or 48 h with RA", "result": "none of the more caudal identities were observed"},
      {"measurement": "HOXC8 MNs", "setting": "[2]; [7]", "result": 58.7, "unit": "%"},
      {"measurement": "HOXC9 MNs", "setting": "[2]; [7]", "result": 41.0, "unit": "%"},
      {"measurement": "anterior thoracic MNs", "setting": "[2]; GDF11 25 ng/ml for 48 h with RA on D3 progenitors", "result": "increasing after 48 h"},
      {"measurement": "MN identities induced", "setting": "[2]", "result": "induce more caudal MN subtypes"}
    ]}
  ]
}
